Experimental data as given in US7727516B2, “Reduction of hair growth” (The Procter & Gamble Company, priority 2006, dated 2010).

Key:
[1] = tested on: human hair follicles in growth phase (anagen); assay: Human hair follicle growth assay (hair follicle culture model); assay type: cell-based; conditions: follicle length day 6 minus day 0, statistically significant, read-out: hair growth inhibition compared to the control
Experimental: Human hair follicles in growth phase (anagen) were isolated from face-lift tissue (obtained from plastic surgeons). The skin was sliced into thin strips exposing 2-3 rows of follicles that could readily be dissected. Follicles were placed into William's E medium (Life Technologies, Gaithersburg, Md.) supplemented with 2 mM L-glutamine, 10 µg/ml insulin, 10 ng/ml hydrocortisone, and an antibiotic/antimicotic mixture as described in Philpott et al. (1990) J. Cell Sci. 97 (Pt3):463-71. The follicles were incubated in 24-well plates (1 follicle/well) at 37° C. in an atmosphere of 5% CO2 and 100% humidity for different periods of time (Philpott et al. (1990) supra). The length of hair follicle was assessed using an image analysis software system. To determine the effect of molecules modulating TRPM8/TRPA1 activity on hair growth, hair follicles were incubated with icilin (Tocris Bioscience) and L-Menthol, L-menthyl lactate (Sigma). Hair follicle images were taken in the 24-well plates under the dissecting scope under a power of 20×. Hair follicle length was measured on day 0 (day follicles were placed in culture) and again on day 6. The growth of hair fiber was calculated by the subtracting the follicle length on day 0 from that determined on day 6. To identify whether modulation of TRPM8 and TRPA1 activity could affect hair growth, their agonists were tested in the hair follicle culture model. Hair follicle treatment with 10 uM of menthol, icilin, and menthyl lactate, caused statistically significant hair growth inhibition by 40%, 45% and 60% respectively, compared to the control. […] Thus, activation of either TRPM8 or TRPA1 by a cooling agent leads to a significant reduction of hair growth rate in vitro.

[2] = tested on: Ki-67 immunoreactivity in the hair matrix and outer root sheath; assay: Ki-67 immunofluorescence for proliferating cells in cultured hair follicles; assay type: cell-based, human; conditions: hair follicle treatment, concentration-dependent
Experimental: For detection of proliferating cells the indirect immunofluorescence protocol using rabbit monoclonal antibody against Ki-67. Eight […]m hair follicle sections were fixed in formalin and postfixed in ethanol/acetic acid. […] Counterstaining was performed using HOECHST 33342 dye ([…] in PBS; 10 minutes). Each phase was interspersed by a washing step (three times) in PBS. Finally, sections were mounted using VectaShield Vector Laboratories). All sections were examined under a Olympus BX 60 fluorescent microscope and photodocumented with the help of a digital image analysis system (CoolSnap™ cooled CCD camera, Alpha Innotech) To identify whether modulation of TRPM8 and TRPA1 activity could affect hair growth, their agonists were tested in the hair follicle culture model. Hair follicle treatment with 10 uM of menthol, icilin, and menthyl lactate, caused statistically significant hair growth inhibition by 40%, 45% and 60% respectively, compared to the control. […] Thus, activation of either TRPM8 or TRPA1 by a cooling agent leads to a significant reduction of hair growth rate in vitro.

[3] = tested on: tyrosinase expression in hair follicles; assay: Tyrosinase immunohistochemistry in treated hair follicles; assay type: cell-based, human; conditions: 10 uM
Experimental: For the immunodetection of melanogenic proteins, sections were incubated with either mouse monoclonal antibody against human tyrosinase or chicken monoclonal antibody against human p-mel 17 (Neomarker and Zymed, respectively; 1:100, overnight), followed by incubation with TRITC-labeled […] (Jackson ImmunoResearch; 45 min, 37° C.) and FITC-labeled goat anti-chicken IgG, respectively. Next, sections were counterstained with Hoechst 33342 (1:300, 15 min) for identification of cell nuclei, and mounted using VectaShield (Vector Laboratories). All sections were examined under a Olympus BX 60 fluorescent microscope and photodocumented with the help of a digital image analysis system (CoolSnap™ cooled CCD camera, Alpha Innotech) To determine whether a TRPM8 and TRPA1 agonist can affect pigment producing activity of the melanocytes, expression of tyrosinase was analyzed in the hair follicles treated with 10 uM icilin by immunohistochemistry. Tyrosinase expression was decreased in treated hair follicles, compared to the control. In addition, the effects of icilin on melanogenic protein expression were tested in human epidermal melanocytes culture. A decrease in tyrosinase and tyrosinase-related protein (TRP)-1 expression levels were observed 48 hours after 10 uM icilin treatment, compared to the control, as determined by Western blot analysis. […]

[4] = tested on: human epidermal melanocytes; assay: Western blot of melanogenic proteins in human epidermal melanocytes culture; assay type: cell-based; conditions: 10 uM, 48 hours
Experimental: Total cellular proteins of human melanocytes were harvested in a lysis buffer (Total protein extraction kit; CHEMICON International, Inc). Twenty […]g protein were loaded per lane, separated by 10% sodium dodecyl sulfate polyacrylamide gel electrophoresis, and transferred to nitrocellulose membrane at 100 V for 1 h. Following overnight blocking with 5% nonfat dry milk/bovine serum albumin (BSA) in Tris-phosphate-buffered saline (PBS) (0.5% Tween-20 in PBS) at 4° C., the membrane was incubated overnight with a monoclonal antibody against either tyrosinase or tyrosinase-related protein-1 or actin at a dilution of 1:1000. […] After extensive washing the membrane was incubated for 1 min with the enzyme-linked chemiluminescence Western Blotting Detection Reagent (Amersham, Buckinghamshire, U.K.), and bands were detected on preflashed Kodak X-Omat film and developed after several seconds of exposure.
To determine whether a TRPM8 and TRPA1 agonist can affect pigment producing activity of the melanocytes, expression of tyrosinase was analyzed in the hair follicles treated with 10 uM icilin by immunohistochemistry. […] A decrease in tyrosinase and tyrosinase-related protein (TRP)-1 expression levels were observed 48 hours after 10 uM icilin treatment, compared to the control, as determined by Western blot analysis. […]

Structure (SMILES)	inhibition at 10 µM [1] [%]	cell proliferation (Ki-67 immunoreactivity in hair matrix and outer root sheath) [2]	tyrosinase expression in treated hair follicles compared to the control [3]	tyrosinase expression level compared to the control [4]	tyrosinase-related protein (TRP)-1 expression level compared to the control [4]
O=C1NC(c2cccc([N+](=O)[O-])c2)=CCN1c1ccccc1O [icilin, 1-(2-Hydroxyphenyl)-4-(3-nitrophenyl)-1,2,3,6-tetrahydropyrimidin-2-one]	45	inhibition of cell proliferation in a concentration-dependent manner	decreased	decrease	decrease
CC1CCC(C(C)C)C(O)C1 (stereo not shown) [menthol]	40	–	–	–	–
CC1CCC(C(C)C)C(OC(=O)C(C)O)C1 (stereo not shown) [menthyl lactate]	60	–	–	–	–
